Biological target: T1, recombinant human GR (Homo sapiens, UniProt P04150)
T1 construct: purchased Panvera/Invitrogen P2812 (kit P2893)
T1 sequence (P04150 1-777): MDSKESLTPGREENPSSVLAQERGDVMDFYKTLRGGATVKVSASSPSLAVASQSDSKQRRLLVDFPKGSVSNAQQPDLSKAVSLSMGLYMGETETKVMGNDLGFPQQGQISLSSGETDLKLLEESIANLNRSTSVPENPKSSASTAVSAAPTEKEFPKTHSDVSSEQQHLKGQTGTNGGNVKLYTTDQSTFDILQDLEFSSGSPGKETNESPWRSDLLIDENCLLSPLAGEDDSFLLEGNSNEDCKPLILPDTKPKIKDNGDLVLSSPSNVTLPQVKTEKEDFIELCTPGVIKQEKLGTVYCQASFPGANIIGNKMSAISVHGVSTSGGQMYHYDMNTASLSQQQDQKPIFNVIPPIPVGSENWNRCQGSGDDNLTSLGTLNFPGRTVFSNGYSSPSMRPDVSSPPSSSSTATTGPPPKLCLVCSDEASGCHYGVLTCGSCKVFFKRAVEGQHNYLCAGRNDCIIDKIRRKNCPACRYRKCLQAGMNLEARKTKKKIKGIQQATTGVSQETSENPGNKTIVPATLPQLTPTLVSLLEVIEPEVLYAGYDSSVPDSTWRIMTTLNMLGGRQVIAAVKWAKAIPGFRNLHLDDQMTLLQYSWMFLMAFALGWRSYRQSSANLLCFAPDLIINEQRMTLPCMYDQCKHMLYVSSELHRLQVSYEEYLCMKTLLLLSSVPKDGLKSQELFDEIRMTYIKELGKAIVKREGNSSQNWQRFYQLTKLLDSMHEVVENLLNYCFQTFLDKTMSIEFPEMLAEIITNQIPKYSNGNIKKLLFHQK
Assay: Human Glucocorticoid Receptor (GR) Assay (fluorescence polarization, Panvera/Invitrogen kit)
Type: binding
Settings: fluorescence polarization; GS Red tracer; 2 hours at room temperature; 100% control 10 μM Dexamethasone; read-out: Inhibition of GR binding, IC50
How it was run: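 Fluorescence polarization competition with recombinant GR and GS Red fluorescent ligand plus stabilizing peptide and DTT in potassium phosphate/sodium molybdate/EDTA buffer with DMSO. Incubated 2 hours at room temperature in the dark; 0% control DMSO, 100% control 10 μM dexamethasone.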

Molecule	IC50 [nM]
C[C@]12Cc3cnn(-c4ccc(F)nc4)c3C=C1CC[C@@H]1[C@@H]2[C@@H](O)C[C@@]2(C)[C@H]1CC[C@]2(OC(=O)c1cocn1)C(=O)SCC#N [Example 160, (1R,3aS,3bS,10aR,10bS,11S,12aS)-1-{[(Cyanomethyl)sulfanyl]carbonyl}-7-(6-fluoropyridin-3-yl)-11-hydroxy-10a,12a-dimethyl-1,2,3,3a,3b,4,5,7,10,10a,10b,11,12,12a-tetradecahydrocyclopenta[5,6]naphtho[1,2-f]indazol-1-yl 1,3-oxazole-4-carboxylate]	2.1
CCC(=O)O[C@]1(C(=O)SCC(=O)OC)CC[C@H]2[C@@H]3CCC4=Cc5c(cnn5-c5ccc(F)cc5)C[C@]4(C)[C@H]3[C@@H](O)C[C@@]21C [Example 11, (1R,3aS,3bS,10aR,10bS,11S,12aS)-7-(4-Fluorophenyl)-11-hydroxy-1-{[(2-methoxy-2-oxoethyl)thio]carbonyl}-10a,12a-dimethyl-1,2,3,3a,3b,4,5,7,10,10a,10b,11,12,12a-tetradecahydrocyclopenta[5,6]naphtho[1,2-f]indazol-1-yl propanoate]	3.8
(1R,3aS,3bS,10aR,10bS,11S,12aS)-1-{[(Cyanomethyl)sulfanyl]carbonyl}-7-(4-fluorophenyl)-11-hydroxy-10a,12a-dimethyl-1,2,3,3a,3b,4,5,7,10,10a,10b,11,12,12a-tetradecahydrocyclopenta[5,6]naphtho[1,2]-indazol-1-yl 2-methyltetrahydrofuran-2-carboxylate [Example 132]	4
CC(=O)O[C@]1(C(=O)CSC#N)CC[C@H]2[C@@H]3CCC4=Cc5c(cnn5-c5ccc(F)cc5)C[C@]4(C)[C@H]3[C@@H](O)C[C@@]21C [Example 130, (1R,3aS,3bS,10aR,10bS,11S,12aS)-7-(4-Fluorophenyl)-11-hydroxy-10a,12a-dimethyl-1-(thiocyanatoacetyl)-1,2,3,3a,3b,4,5,7,10,10a,10b,11,12,12a-tetradecahydrocyclopenta[5,6]naphtho[1,2-f]indazol-1-yl acetate]	5.9
CSCOC(=O)[C@@]1(O)CC[C@H]2[C@@H]3CCC4=Cc5c(cnn5-c5ccc(F)cc5)C[C@]4(C)[C@H]3[C@@H](O)C[C@@]21C [Example 117, (Methylsulfanyl)methyl(1R,3aS,3bS,10aR,10bS,11S,12aS)-7-(4-fluorophenyl)-1,11-dihydroxy-10a,12a-dimethyl-1,2,3,3a,3b,4,5,7,10,10a,10b,11,12,12a-tetradecahydrocyclopenta[5,6]naphtho[1,2-f]indazole-1-carboxylate]	7
C[C@]12Cc3cnn(-c4ccccn4)c3C=C1CC[C@@H]1[C@@H]2[C@@H](O)C[C@@]2(C)[C@H]1CC[C@]2(OC(=O)c1ccco1)C(=O)OCC#N [Example 105, Cyanomethyl(1R,3aS,3bS,10aR,10bS,11S,12aS)-1-[(furan-2-ylcarbonyl)oxy]-11-hydroxy-10a,12a-dimethyl-7-pyridin-2-yl-1,2,3,3a,3b,4,5,7,10,10a,10b,11,12,12a-tetradecahydrocyclopenta[5,6]naphtho[1,2-f]indazole-1-carboxylate]	6.1
C[C@]12Cc3cnn(-c4ccc(F)nc4)c3C=C1CC[C@@H]1[C@@H]2[C@@H](O)C[C@@]2(C)[C@H]1CC[C@]2(OC(=O)[C@H]1CCCO1)C(=O)SCCO [Example 186, (1R,3aS,3bS,10aR,10bS,11S,12aS)-7-(6-Fluoropyridin-3-yl)-11-hydroxy-1-{[(2-hydroxyethyl)sulfanyl]carbonyl}-10a,12a-dimethyl-1,2,3,3a,3b,4,5,7,10,10a,10b,11,12,12a-tetradecahydrocyclopenta[5,6]naphtho[1,2-f]indazol-1-yl (2R)-tetrahydrofuran-2-carboxylate]	2.3
C[C@]12Cc3cnn(-c4ccc(F)nc4)c3C=C1CC[C@@H]1[C@@H]2[C@@H](O)C[C@@]2(C)[C@H]1CC[C@]2(O)C(=O)SCC#N [Example 164, S-(Cyanomethyl)(1R,3aS,3bS,10aR,10bS,11S,12aS)-7-(6-fluoropyridin-3-yl)-1,11-dihydroxy-10a,12a-dimethyl-1,2,3,3a,3b,4,5,7,10,10a,10b,11,12,12a-tetradecahydrocyclopenta[5,6]naphtho[1,2-f]indazole-1-carbothioate]	1.4
C[C@]12Cc3cnn(-c4ccc(F)cc4)c3C=C1CC[C@@H]1[C@@H]2[C@@H](O)C[C@@]2(C)[C@H]1CC[C@]2(OC(=O)c1ccno1)C(=O)SCC#N [Example 59, (1R,3aS,3bS,10aR,10bS,11S,12aS)-1-{[(Cyanomethyl)thio]carbonyl}-7-(4-fluorophenyl)-11-hydroxy-10a,12a-dimethyl-1,2,3,3a,3b,4,5,7,10,10a,10b,11,12,12a-tetradecahydropcyclopenta[5,6]naphtho[1,2-f]indazol-1-yl isoxazole-5-carboxylate]	3.9
C[C@]12Cc3cnn(-c4ccc(F)cc4)c3C=C1CC[C@@H]1[C@@H]2[C@@H](O)C[C@@]2(C)[C@H]1CC[C@]2(OC(=O)C1CC1)C(=O)SCCO [Example 36, (1R,3aS,3bS,10aR,10bS,11S,12aS)-7-(4-Fluorophenyl)-11-hydroxy-1-{[(2-hydroxy-ethyl)thio]carbonyl}-10a,12a-dimethyl-1,2,3,3a,3b,4,5,7,10,10a,10b,11,12,12a-tetradecahydrocyclopenta[5,6]naphtho[1,2-f]indazol-1-yl cyclopropanecarboxylate]	2.5
CCC(=O)O[C@]1(C(=O)SCCO)CC[C@H]2[C@@H]3CCC4=Cc5c(cnn5-c5ccc(F)cc5)C[C@]4(C)[C@H]3[C@@H](O)C[C@@]21C [Example 15, (1R,3aS,3bS,10aR,10bS,11S,12aS)-7-(4-Fluorophenyl)-11-hydroxy-1-{[(2-hydroxyethyl)thio]carbonyl}-10a,12a-dimethyl-1,2,3,3a,3b,4,5,7,10,10a,10b,11,12,12a-tetradecahydropcyclopenta[5,6]naphtho[1,2-f]indazol-1-yl propanoate]	3.7
C[C@]12Cc3cnn(-c4ccc(F)c(CO)c4)c3C=C1CC[C@@H]1[C@@H]2[C@@H](O)C[C@@]2(C)[C@H]1CC[C@]2(OC(=O)c1ccco1)C(=O)SCC#N [Example 80, (1R,3aS,3bS,10aR,10bS,11S,12aS)-1-{[(Cyanomethyl)thio]carbonyl}-7-[4-fluoro-3-(hydroxymethyl)phenyl]-11-hydroxy-10a,12a-dimethyl-1,2,3,3a,3b,4,5,7,10,10a,10b,11,12,12a-tetradecahydrocyclopenta[5,6]naphtho[1,2]-indazol-1-yl furan-2-carboxylate]	4.2
C[C@]12Cc3cnn(-c4ccc(F)cc4)c3C=C1CC[C@@H]1[C@@H]2[C@@H](O)C[C@@]2(C)[C@H]1CC[C@]2(OC(=O)c1nccs1)C(=O)SCF [Example 42, (1R,3aS,3bS,10aR,10bS,11S,12aS)-1-{[(Fluoromethyl)thio]carbonyl}-7-(4-fluoro-phenyl)-11-hydroxy-10a,12a-dimethyl-1,2,3,3a,3b,4,5,7,10,10a,10b,11,12,12a-tetradecahydrocyclopenta[5,6]naphtho[1,2-f]indazol-1-yl 1,3-thiazole-2-carboxylate]	3.2
COCC(=O)O[C@]1(C(=O)SCC#CCO)CC[C@H]2[C@@H]3CCC4=Cc5c(cnn5-c5ccc(F)cc5)C[C@]4(C)[C@H]3[C@@H](O)C[C@@]21C [Example 31, (1R,3aS,3bS,10aR,10bS,11S,12aS)-7-(4-Fluorophenyl)-11-hydroxy-1-{[(4-hydroxy-but-2-yn-1-yl)thio]carbonyl}-10a,12a-dimethyl-1,2,3,3a,3b,4,5,7,10,10a,10b,11,12,12a-tetradecahydrocyclopenta[5,6]naphtho[1,2-f]indazol-1-yl methoxyacetate]	4.5
C[C@]12Cc3cnn(-c4ccc(F)c(CO)c4)c3C=C1CC[C@@H]1[C@@H]2[C@@H](O)C[C@@]2(C)[C@H]1CC[C@]2(OC(=O)C1CC1)C(=O)SCC#N [Example 144, (1R,3aS,3bS,10aR,10bS,11S,12aS)-1-{[(Cyanomethyl)sulfanyl]carbonyl}-7-[4-fluoro-3-(hydroxymethyl)phenyl-]-11-hydroxy-10a,12a-dimethyl-1,2,3,3a,3b, 4,5,7,10,10a,11,12,12a-tetradecahydrocyclopenta[5,6]naphtho[1,2-f]indazol-1-yl Cyclopropanecarboxylate]	3.8
